In patent US20230086706A1, “Compounds for promoting follicle maturation” (Aarhus Universitet, priority 2020, published 2023):

How the values were obtained:
[1] = test system: ID8 Mouse Ovarian Surface Epithelial Cell Line; assay: Toxicity assay (cell morphology by light microscopy); format: cell-based; conditions: 1 μM compound, cells grown for 2 days, morphology checked using light microscopy
Procedure: Immediately, 1 μM compound was added to the media and cells were grown for 2 days and morphology checked using light microscopy.

[2] = test system: ovaries (primordial, primary and secondary follicles); assay: Evaluation of follicle numbers after ovary organ culture with compound; format: cell-based, C57BL/6j×CBA F1 hybrid mice; conditions: ovaries of 7-day-old female pups cultured four days; 0.5 μM and 1 μM for 582 and 583, 25 μM for 798 and 798 (so in the source)
Procedure: C57BL/6j×CBA F1 hybrid mice (Janvier Labs, France) were housed and bred in the animal facilities at Department of Biomedicine, Aarhus University. Animals were housed in a 12:12 h controlled light-dark environment and were provided with food and water ad libitum. 7-day-old female pups were used for the study.
Pups were sacrificed and ovaries were excised. Using a stereomicroscope MZ75 (Leica Microsystems, Germany), excess tissue was removed. […] 200-300 μL of culture medium was added to the well below the insert and up to two ovaries were placed on the membrane of each insert. […] Up to six wells in the 24-well plate were used for inserts. […] The ovaries were cultured at 37° C., 5% CO2 for four days. 150 μL of medium was replaced every other day with fresh culture medium.
Ovaries kept in organ culture for four days were fixed for 24 hours in 4% paraformaldehyde solution at 4° C. After fixation, ovaries were dehydrated in ethanol series using 70%, 96% and 99.9% ethanol. Xylene was used as clearing agent before the ovaries were infiltrated in paraffin wax. 5 μm-sections of samples in paraffin were cut using a microtome (Cut 6062, SLEE medical, Germany). […] The samples were then rinsed in dH2O, stained in hematoxylin for 40 sec., rinsed in dH2O for 5 min., and stained in eosin for 46 sec. The samples were dehydrated in ethanol: 2×2 min. in 96% ethanol, 2×2 min in 99.9% ethanol, and finally cleared up in xylene for at least 30 min before mounting the samples using Eukitt mounting medium (Sigma-Aldrich) and cover glass. […] The follicles of every 3rd to 4th section of each ovary were counted and the distribution of follicles in the different stages in percentage was determined.

| Structure (SMILES) | toxicity to the grown cells / alteration of the morphology of the cells [1] | overall appearance and size of the ovaries in culture (visual inspection of ovarian sections) [2] |
| --- | --- | --- |
| NC(=O)c1ccc[n+](C2CCOCC2)c1 [Compound 798, 3-carbamoyl-1-(tetrahydro-2H-pyran-4-yl)pyridin-1-ium] | not to alter the morphology of the cells nor to be toxic to the grown cells | healthy and the size was normal, no shrinkage was observed |
| CC1=C2C[C@H]3[C@@H](CC=C4C[C@@H](O)CC[C@@]43C)[C@@H]2CC[C@]12O[C@@H]1C[C@H](C)CN[C@H]1[C@H]2C [cyclopamine, Cyclopamine, reference compound] | not to alter the morphology of the cells nor to be toxic to the grown cells | – |
| NC(=O)c1ccc[n+](Cc2ccccc2)c1 [Compound 582, 1-benzyl-3-carbamoylpyridin-1-ium] | not to alter the morphology of the cells nor to be toxic to the grown cells | healthy and the size was normal, no shrinkage was observed |
| C[n+]1cccc(C(N)=O)c1 [Compound 583, 3-carbamoyl-1-methylpyridin-1-ium] | not to alter the morphology of the cells nor to be toxic to the grown cells | healthy and the size was normal, no shrinkage was observed |
